{"source": "patent US20070202090A1", "about": "“Water Soluble Form Of Coenzyme Q10 In The Form Of An Inclusion Complex With Beta-Cyclodextrin, Process Of Preparing, And Use Thereof” (priority 2004, published 2007)", "key": {"[1]": {"assay": "Dissolution of CoQ10 in dairy products and orange juice", "format": "physicochemical", "settings": "about 35-37 mg CoQ10 in about 200 g product", "protocol": "β-Cyclodextrin (7.90 g, 6.95 mmole) was dissolved in distilled water (68 mL) at 65-70° C., and under stirring was added CoQ10 (5.00 g, 5.79 mmole). After about 30 minutes the CDQ10 complex precipitated. The reaction mixture was kept stirring for about 10 hours at 70° C., and 10 hours at room temperature, till the formation of an intensive yellow coloured paste. Then equal aliquots (each 500 μL containing about 37 mg of CoQ10 in the form of CDQ10) of the obtained mixture were admixed to about 200 g each: milk (3.5% of milk fat, Ljubljanske miekarne), liquid yoghurt (1.3% of milk fat, Ljubljanske miekarne), fruit yoghurt (peach, Ljubljanske miekarne) and orange juice (100%, Rauch). The obtained preparations were organoleptically compared with non-lemented supplemented milk, liquid yoghurt, fruit yoghurt and orange juice, as well as with those supplemented each with about 35-37 mg CoQ10. As CoQ10 was not dissolved in said products, they were not included in the tests. The tests were performed by 10-21 randomly chosen consumers."}, "[2]": {"assay": "Comparison of milk-solubility of CoQ10 and CDQ10 (saturation, HPLC)", "format": "physicochemical", "settings": "fresh milk 3.5% milk fat, room temperature, addition till saturation, filtrate", "protocol": "β-Cyclodextrin (1.575 g, 1.39 mmole) was dissolved in 13 mL of distilled water at 60-70° C. Then 1.00 g (1.16 mmole) of CoQ10 were added to the dissolved β-cyclodextrin, and the mixture was stirred for 20 minutes at 60-70° C. After stirring for some minutes the CDQ10 complex started to precipitate. The reaction mixture was kept stirring for about 8 hours at 60-70° C., and about 2 hours at room temperature, till the formation of a homogenous paste. Then the obtained mixture was under stirring at room temperature added to fresh milk containing 3.5% of milk fat (Ljubljanske mlekarne) till saturation. Into another milk aliquot was added under identical conditions CoQ10 till saturation. […]"}}}
{"molecule": "COC1=C(OC)C(=O)C(C/C=C(\\C)CC/C=C(\\C)CC/C=C(\\C)CC/C=C(\\C)CC/C=C(\\C)CC/C=C(\\C)CC/C=C(\\C)CC/C=C(\\C)CC/C=C(\\C)CCC=C(C)C)=C(C)C1=O", "note": "[CoQ10, coenzyme Q10]", "values": [{"measurement": "dissolution in milk, liquid yoghurt, fruit yoghurt and orange juice", "setting": "[1]", "result": "not dissolved"}, {"measurement": "Concentration of CoQ10 in milk", "setting": "[2]", "result": 3.2, "unit": "µg/g"}]}
